As a reminder, the EC50 is the midpoint of the concentration-response curve.

Active and inactive are the calls of the source. No cut-off for these calls is given here.

Assay [1] concerns Yellow fever virus. The assay can be described thus: Antiviral activity against 10^2 CCID50 Yellow fever virus Jimenez infected in syrian golden hamster assessed as survival of animal at 400 mg/kg/day, po administered twice daily for 8 days started 1 day post viral infection. Type of assay: functional, organism-based.
The test system of assay [2] is Yellow fever virus. Briefly: Antiviral activity against 10^2 CCID50 Yellow fever virus Jimenez infected in syrian golden hamster assessed as serum ALT level at 400 mg/kg/day, po administered daily for days started 2 day post viral challenge. The assay is classed as functional.
Assay [3] relates to Yellow fever virus. Briefly: Antiviral activity against 10^2 CCID50 Yellow fever virus Jimenez infected in syrian golden hamster assessed as serum AST level at 400 mg/kg/day, po administered twice daily for 8 days started 4 hrs prior to viral infection. The assay is classed as functional, organism-based.
The test system of assay [4] is Yellow fever virus. Briefly: Antiviral activity against 10^2 CCID50 Yellow fever virus Jimenez infected in syrian golden hamster assessed as survival of animal at 400 mg/kg/day, po administered twice daily for 8 days started 2 day post viral infection. Type of assay: functional, organism-based.
Assay [5] has as its system Yellow fever virus. Briefly: Antiviral activity 10^2 CCID50 Yellow fever virus Jimenez infected in syrian golden hamster assessed as serum AST level at 100 mg/kg/day, po administered twice daily for 8 days started 4 hrs prior to viral infection. Type of assay: functional, organism-based.
The subject of assay [6] is Yellow fever virus. Briefly: Antiviral activity against 10^2 CCID50 Yellow fever virus Jimenez infected in syrian golden hamster assessed as serum AST level at 400 mg/kg/day, po administered daily for days started 5 day post viral challenge. Type of assay: functional.
The subject of assay [7] is Yellow fever virus. The assay can be described thus: Antiviral activity against 10^2 CCID50 Yellow fever virus Jimenez infected in syrian golden hamster assessed as serum AST level at 400 mg/kg/day, po administered daily for days started 2 day post viral challenge. Type of assay: functional.
Assay [8] concerns Yellow fever virus. Briefly: Antiviral activity against 10^2 CCID50 Yellow fever virus Jimenez infected in syrian golden hamster assessed as serum ALT level at 400 mg/kg/day, po administered daily for days started 3 day post viral challenge. Type of assay: functional.
Assay [9] has as its system Yellow fever virus. Briefly: Antiviral activity against 10^2 CCID50 Yellow fever virus Jimenez infected in syrian golden hamster assessed as serum ALT level at 400 mg/kg/day, po administered twice daily for 8 days started 4 hrs prior to viral infection. The assay is classed as functional.
In assay [10] the test system is Yellow fever virus. The assay can be described thus: Antiviral activity against 10^2 CCID50 Yellow fever virus Jimenez infected in syrian golden hamster assessed as serum AST level at 400 mg/kg/day, po administered daily for days started 3 day post viral challenge. The assay is classed as functional.
The test system of assay [11] is Yellow fever virus. Briefly: Antiviral activity against 10^2 CCID50 Yellow fever virus Jimenez infected in syrian golden hamster assessed as serum ALT level at 400 mg/kg/day, po administered daily for days started 5 day post viral challenge. The assay is classed as functional.
Assay [12] has as its system Yellow fever virus. The assay can be described thus: Antiviral activity against 10^2 CCID50 Yellow fever virus Jimenez infected in syrian golden hamster assessed as mean day of death of mice at 400 mg/kg/day, po administered twice daily for 8 days started 4 day post infection. The assay is classed as functional.
The subject of assay [13] is Yellow fever virus. The assay can be described thus: Antiviral activity against 10^2 CCID50 Yellow fever virus Jimenez infected in syrian golden hamster assessed as serum AST level in surviving animals at 400 mg/kg/day, po administered 4 days post viral infection. Type of assay: functional.
Assay [14] has as its system Yellow fever virus. The assay can be described thus: Antiviral activity against 10^2 CCID50 Yellow fever virus Jimenez infected in syrian golden hamster assessed as serum ALT level in surviving animals at 400 mg/kg/day, po administered 5 days post viral infection. The assay is classed as functional.
In assay [15] the test system is Yellow fever virus. Briefly: Antiviral activity against Yellow fever virus 17D infected in African green monkey Vero cells assessed as inhibition of virus induced cytopathic effect by luciferase reporter gene assay. Type of assay: functional, cell-based. A general note: Protection from cytopathic effect is a common read-out in antiviral testing.

As to `NC(=O)c1nc(F)cnc1O` [FAVIPIRAVIR], the result in the assay on Yellow fever virus [1] and with Yellow fever virus [4] was Active. The Activity in the assay on Yellow fever virus [2] turned out to be 84 IU/L; in the assay on Yellow fever virus [6] it was 212 IU/L; with Yellow fever virus [7] it was 75 IU/L; with Yellow fever virus [8] it was 139 IU/L; with Yellow fever virus [9], 63 IU/L; in the assay with Yellow fever virus [10], 137 IU/L. In addition, the Activity in the assay on Yellow fever virus [11] is 157 IU/L; with Yellow fever virus [13], 132 IU/L; in the assay on Yellow fever virus [14] it was 64 IU/L. The result in the assay with Yellow fever virus [3] and in the assay with Yellow fever virus [5] was inactive. Moreover, the Time in the assay with Yellow fever virus [12] came out at 6.5 days. For the same compound, in the assay with Yellow fever virus [15], the concentration giving a half-maximal response (EC50) worked out at 270 µM.
